# According to article PMC4700930 (Nature, 2015):
# Where two headings read alike, the source gives them in different places. Numbered stars: 1 amine (or outer) side, 2 acyl side, 3 side chain; on linkers, the order of the positions; unused ones are H or OH. Bridge positions count the residues as written; N and C are the ends. Square brackets hold non-standard residues; d marks the D form. Peptide text beside a SMILES is read from it. I, II: the chains in the order shown. Actinocin(9to1) = Cc1c2oc3c(C)ccc(C(=O)[*:1])c3nc-2c(C(=O)[*:2])c(N)c1=O; NMeV = CN[C@H](C(=O)O)C(C)C; Sar = CNCC(=O)O
# Tests used:
# [1] = tested on: GFP-transfected P. berghei ANKA strain; details: for Activity % / Survival days: oral single dose
# P. berghei liver stages = assay: Plasmodium berghei luciferase liver stage assay
# [2] = tested on: Plasmodium falciparum strain 3D7; assay: P. falciparum; type: cell-based
# [3] = tested on: P. falciparum strains K1, W2, 7G8, TM90C2A, D6, V1/S, NF54; assay: P. falciparum; type: cell-based, Plasmodium falciparum; details: compared with 3D7
# [4] = tested on: P. falciparum clinical isolates; assay: Ex vivo P. falciparum field isolates assay; type: cell-based; details: Plasmodium falciparum
# [5] = tested on: P. vivax clinical isolates; assay: Ex vivo P. vivax field isolates assay; type: cell-based, Plasmodium vivax; details: read-out: median EC50, P. vivax clinical isolates, isolates from Papua (Indonesia)
# [6] = tested on: MRC5 (human foetal lung fibroblasts); assay: Cytotoxicity against mammalian cells, resazurin assay, MRC5; type: cell-based
# P. falciparum NF54 = assay: Stage specificity studies in P. falciparum, synchronised cultures; type: cell-based, Plasmodium falciparum; details: 4nM for 24 h
# [7] = tested on: P. falciparum Pf3D7^0087/N9; type: in vivo, Plasmodium falciparum
# [8] = tested on: liver schizont forms of P. yoelii; assay: P. yoelii liver stage assay; type: cell-based; details: Plasmodium yoelii, read-out: EC50, P. yoelii liver stage, liver schizont forms
# P. berghei (PbGFPCON507) = type: in vivo, Plasmodium berghei
# [9] = Plasma protein binding, equilibrium dialysis; type: in vitro ADME, mouse, rat, human
# Mouse pharmacokinetics = type: in vivo; details: Intravenous 1 mg/kg
# Rat pharmacokinetics = type: in vivo
# Dog pharmacokinetics = type: in vivo; details: Intravenous 1 mg/kg
# [10] = tested on: DDD107498-resistant P. falciparum lines; assay: SYBR Green growth assay on DDD107498-selected resistant lines; type: cell-based; details: Plasmodium falciparum
# [11] = tested on: DNA/RNA synthesis in P. falciparum 3D7; assay: Metabolic labelling with [3H]-hypoxanthine; type: cell-based, Plasmodium falciparum; details: sensitive and drug-resistant parasites
# P. falciparum = assay: Parasite Reduction Ratio
# P. berghei ookinetes = assay: P. berghei ookinete development assay; details: Plasmodium berghei, read-out: EC50, P. berghei ookinete
# [12] = tested on: luciferase-expressing P. berghei sporozoites; details: blood sampling from the mice
# [13] = 30 mg/kg, murine P. berghei model
# [14] = male, Sprague Dawley, rat, blood, po, 5 mg/kg
structure (smiles),measurement,setting,value
CO[C@H]1O[C@@H]2O[C@@]3(C)CC[C@H]4[C@H](C)CC[C@@H]([C@H]1C)[C@@]24OO3 [Artemether],Activity %,[1]; 3 mg/kg,59%
same,Survival days,[1]; 3 mg/kg,6 days
same,Activity %,[1]; 10 mg/kg,89%
same,Survival days,[1]; 10 mg/kg,6 days
same,Survival days,[1]; 30 mg/kg,7 days
same,Activity %,[1]; [13],98%
C[C@H]1[C@H](OC(=O)CCC(=O)O)O[C@@H]2O[C@@]3(C)CC[C@H]4[C@H](C)CC[C@@H]1[C@@]24OO3 [Artesunate],Activity %,[1]; 3 mg/kg,<40%
same,Survival days,[1]; 3 mg/kg,6 days
same,Activity %,[1]; 10 mg/kg,75%
same,Survival days,[1]; 10 mg/kg,6 days
same,Survival days,[1]; 30 mg/kg,9 days
"O=C1C(O)=C([C@H]2CC[C@H](c3ccc(Cl)cc3)CC2)C(=O)c2ccccc21 [Atovaquone, reference compound]",EC50,"P. berghei liver stages; read-out: EC50, P. berghei liver stage, continuous treatment",0.3 nM
CCN(CC)CCCC(C)Nc1ccnc2cc(Cl)ccc12 (stereo not drawn) [Chloroquine],Survival days,[1]; 3 mg/kg,7 days
same,Survival days,[1]; 10 mg/kg,7 days
same,Survival days,[1]; 30 mg/kg,10 days
O=C(NCCN1CCCC1)c1cc(-c2ccc(CN3CCOCC3)cc2)nc2ccc(F)cc12 [DDD107498],EC99 against 3D7 parasites,"[2]; P. falciparum 3D7, n=39",5.9 nM
same,EC50,"[2]; Plasmodium falciparum, 3D7, read-out: EC50 against 3D7 parasites",1 nM
same,EC90,"[2]; Plasmodium falciparum, 3D7, read-out: EC90 against 3D7 parasites",2.4 nM
same,activity against drug-resistant strains,[3],almost equally active
same,EC50,"[4]; read-out: Range of EC50, P. falciparum clinical isolates",0.29 to 3.29 nM
same,EC50,"[4]; read-out: median EC50, P. falciparum clinical isolates",0.81 nM
same,EC50,[5],0.51 nM
same,"selectivity, human cells (MRC5 and Hep-G2) over parasite",[6],"> 20,000 fold"
same,effect from the ring stage,P. falciparum NF54,formation of abnormal trophozoites
same,"reduction in parasites, from the schizont stage",P. falciparum NF54,98%
same,"reduction in parasites, from the trophozoite stage",P. falciparum NF54,50%
same,minimum parasiticidal concentration (MPC),"[7]; asexual blood stage infections, blood of infected SCID mice",10 to 13 ng/mL
same,ED90 on day 7 after infection,"[7]; dosed orally daily for 4 days, SCID mice, P. falciparum",0.95 mg/kg per day
same,EC50,[8],~1 nM
same,TB effect- sporozoite intensity,P. berghei (PbGFPCON507); 3 mg/kg oral,93.8%
same,TB effect- sporozoite prevalence,P. berghei (PbGFPCON507); 3 mg/kg oral,88.6%
same,reduction in infected mosquitoes (TB effect- oocyst prevalence),"P. berghei (PbGFPCON507); 3 mg/kg oral, day 10",90.7%
same,reduction in oocysts per midgut (TB effect- oocyst intensity),"P. berghei (PbGFPCON507); 3 mg/kg oral, day 10",98.8%
same,Inhibition in infection of naïve mice,"P. berghei (PbGFPCON507); 3 mg/kg oral, multiple mosquito biting rates",89.5%
same,Effect size,"P. berghei (PbGFPCON507); chain binomial model, reduction of R0, 100% coverage",90.5%
same,protein binding,[9],low protein binding
same,CI,Mouse pharmacokinetics,12 mL/min/g
same,CI,"Rat pharmacokinetics; Rat, Intravenous 1 mg/kg",18 mL/min/g
same,bioavailability,Rat pharmacokinetics; [14],84%
same,half-life,Rat pharmacokinetics; [14],18 h
same,CI,Dog pharmacokinetics,30 mL/min/g
same,mutagenicity,Mutagenicity,non-mutagenic
same,IC50,"[10]; DD2, read-out: DDD107498 IC50, WT Dd2",0.14 nM
same,IC50,"[10]; read-out: DDD107498 IC50, high-level resistant line EF2-L775F",660 nM
same,IC50,"[10]; read-out: DDD107498 IC50, high-level resistant line EF2-Y186N",3100 nM
same,IC50,"[10]; read-out: DDD107498 IC50, low-level resistant line EF2-E134D",5.8 nM
same,effect on DNA/RNA biosynthesis ([3H]-hypoxanthine incorporation),[11],minimal effects
same,lag before killing (effects reversible following wash-out),P. falciparum; 10 × EC50,24 to 48 h
same,concentration sufficient to produce maximal killing effects,"P. falciparum; tested at 0.1, 0.3, 1, 3 and 10 × EC50",≥ 1 × EC50
same,EC50,P. berghei ookinetes,5 nM
same,EC50,"P. berghei liver stages; read-out: EC50, P. berghei liver stage, liver schizont forms",~1 nM
same,Activity %,[1]; 3 mg/kg,99%
same,Survival days,[1]; 3 mg/kg,9 days
same,Activity %,[1]; 10 mg/kg,99.0%
same,Survival days,[1]; 10 mg/kg,14 days
same,Survival days,[1]; 30 mg/kg,23 days
same,Activity %,[1]; [13],99.1%
same,ED90 (90% reduction in parasitaemia),"[1]; single oral dose, mice infected with P. berghei",0.57 mg/kg
same,"MPC, chemoprotection",[12],15 to 20 ng/mL
C[C@H]1[C@@H](O)O[C@@H]2O[C@@]3(C)CC[C@H]4[C@H](C)CC[C@@H]1[C@@]24OO3 [Dihydroartemsinin],Activity %,[1]; 3 mg/kg,61%
same,Survival days,[1]; 3 mg/kg,7 days
same,Activity %,[1]; 10 mg/kg,97%
same,Survival days,[1]; 10 mg/kg,6 days
same,Survival days,[1]; 30 mg/kg,7 days
same,Activity %,[1]; [13],99%
OC(c1cc(C(F)(F)F)nc2c(C(F)(F)F)cccc12)C1CCCCN1 (stereo not drawn) [Mefloquine],Activity %,[1]; 3 mg/kg,<40%
same,Survival days,[1]; 3 mg/kg,7 days
same,Activity %,[1]; 10 mg/kg,95%
same,Survival days,[1]; 10 mg/kg,16 days
same,Survival days,[1]; 30 mg/kg,22 days
"Cc1c2oc3c(C)ccc(C(=O)N[C@@H]4C(=O)N[C@H](C(C)C)C(=O)N5CCC[C@H]5C(=O)N(C)CC(=O)N(C)[C@@H](C(C)C)C(=O)O[C@@H]4C)c3nc-2c(C(=O)N[C@@H]2C(=O)N[C@H](C(C)C)C(=O)N3CCC[C@H]3C(=O)N(C)CC(=O)N(C)[C@@H](C(C)C)C(=O)O[C@@H]2C)c(N)c1=O [actinomycin D] (I: T[dV]P[Sar][NMeV] / II: T[dV]P[Sar][NMeV]; ester I:1-I:C, II:1-II:C; linker I:N-II:N via Actinocin(9to1))",effect on DNA/RNA biosynthesis ([3H]-hypoxanthine incorporation),[11],significant dose-dependent reduction
C[C@@H]1C[C@@H]([C@H](O)CC2CC(=O)NC(=O)C2)C(=O)[C@@H](C)C1 [cycloheximide],effect on DNA/RNA biosynthesis ([3H]-hypoxanthine incorporation),[11],minimal effects
